This note sets out measurements from patent US12496319B2 (INDUSTRY FOUNDATION OF CHONNAM NATIONAL UNIVERSITY, priority 2020, dated 2025).

The assay addresses T1, NOD2 (Homo sapiens, UniProt Q9HC29).
T1 construct: host or cells: HEK293 / HEK293T cells carrying a NOD2-responsive luciferase reporter
As to the kind of experiment: NOD2 activity by luciferase assay in HEK293 cells. It is filed as cell-based. The settings on record: 10 ng/ml MDP control, 24 hours, untreated = 1.00. How it is done: Existing literature has reported that the protective effect of lactic acid bacteria on inflammatory bowel disease results from the anti-inflammatory effect of NOD2, which is an innate immune receptor protein. […] Specifically, HEK293 cells were treated with 1 MOI of several types of lactic acid bacteria, which had been transduced to generate luciferase by transcription of the luciferase gene through the stimulation of NOD2. For a control with respect to cell activity, HEK293 cells were treated with 10 ng/ml muramyl dipeptide (MDP) capable of stimulating NOD2 and then cultured in a cell incubator for 24 hours. Thereafter, the NOD2 activity was determined by luciferase assay on the luciferase generated from cell rupture. MDP, which is a component of the peptidoglycan constituting the cell wall of bacteria, is a ligand that directly acts on NOD2, and this was used as a control.

T1 sequence (Q9HC29 whole entry): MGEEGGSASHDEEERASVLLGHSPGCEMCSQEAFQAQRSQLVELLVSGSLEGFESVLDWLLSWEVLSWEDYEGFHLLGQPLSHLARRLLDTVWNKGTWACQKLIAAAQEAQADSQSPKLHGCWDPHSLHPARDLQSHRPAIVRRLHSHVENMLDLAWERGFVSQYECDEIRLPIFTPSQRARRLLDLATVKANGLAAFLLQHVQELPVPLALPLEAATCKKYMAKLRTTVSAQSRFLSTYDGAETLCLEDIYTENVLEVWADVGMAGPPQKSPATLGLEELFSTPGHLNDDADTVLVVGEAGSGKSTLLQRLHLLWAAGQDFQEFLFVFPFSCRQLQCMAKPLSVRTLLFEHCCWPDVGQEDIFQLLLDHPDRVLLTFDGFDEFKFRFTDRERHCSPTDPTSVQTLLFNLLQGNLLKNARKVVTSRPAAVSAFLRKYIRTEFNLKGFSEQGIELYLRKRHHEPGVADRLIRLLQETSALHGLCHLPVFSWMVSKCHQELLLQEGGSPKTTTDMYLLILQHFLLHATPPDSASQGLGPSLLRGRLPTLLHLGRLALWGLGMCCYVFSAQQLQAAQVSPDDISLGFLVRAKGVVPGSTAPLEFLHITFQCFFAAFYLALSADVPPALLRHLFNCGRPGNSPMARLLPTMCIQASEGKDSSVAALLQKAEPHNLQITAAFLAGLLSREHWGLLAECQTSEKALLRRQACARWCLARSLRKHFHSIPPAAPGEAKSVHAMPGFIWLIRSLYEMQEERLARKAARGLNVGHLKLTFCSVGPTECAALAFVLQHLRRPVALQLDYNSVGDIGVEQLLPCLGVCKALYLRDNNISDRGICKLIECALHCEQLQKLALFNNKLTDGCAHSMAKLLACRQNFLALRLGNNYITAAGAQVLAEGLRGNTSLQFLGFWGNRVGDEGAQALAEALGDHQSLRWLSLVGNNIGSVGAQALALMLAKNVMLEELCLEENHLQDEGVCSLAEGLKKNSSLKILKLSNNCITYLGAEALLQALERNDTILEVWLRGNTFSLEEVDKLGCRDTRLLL

Regarding `CC(=O)N[C@H]1C(O)O[C@H](CO)[C@@H](O)[C@@H]1O[C@H](C)C(=O)N[C@@H](C)C(=O)N[C@H](CCC(=O)O)C(N)=O` (mixture of isomers) [MDP, muramyl dipeptide], the “NOD2 Activity” value came to 40.70.
